Patent US8206970B2, “Production of 2-butanol and 2-butanone employing aminobutanol phosphate phospholyase” (Butamax(TM) Advanced Biofuels LLC, priority 2006, dated 2012)

How the values were obtained:
[1] = system: Erwinia amino alcohol O-phosphate lyase; experiment: activity of amino alcohol O-phosphate lyase towards aminobutanol O-phosphate and stereoisomers (MBTH derivatization, HPLC); format: biochemical, Erwinia carotovora subsp. atroseptica; details: for conversion of substrate to ketone product: 100 μg cell free extract, 10 mM substrate, 0.1 mM PLP, pH 7.8, 37° C. overnight; for product yield / activity compared among substrates: same conditions, comparison between substrate isomers
Description: 2-Butanone can also be detected by derivatization with 3-methyl-2-benzothiazolinone hydrazone (MBTH). An aqueous solution containing 2-butanone is mixed with an equal volume of an aqueous solution of 6 mg/mL MBTH in 375 mM glycine-HCl (pH 2.7) and incubated at 100° C. for 3 min. The resulting MBTH-derivatized samples are analyzed on a 25 cm×4.6 mm (id) Supelosil LC-18-D5 5 μm column (Supelco) using a mobile phase of 55% acetonitrile in water at a flow rate of 1 mL/min. The 2-butanone derivative appears as two peaks (cis and trans isomers) with retention times of approximately 12.3 and 13.3 min and absorbance maxima of 230 and 307 nm.
The activity of the amino alcohol O-phosphate lyase towards the aminobutanol O-phosphate substrates was studied under the same conditions as described above. The reaction was carried out at 37° C. overnight in a 1 mL reaction that contained 100 μg of cell free extract of E. coli TOP10/pBAD.KA-AT, 10 mM aminobutanol O-phosphate (either the mixture of (R,R)+(S,S) or the mixture of (R,S) +(S,R) isomers described in Example 15) in 100 mM Tris-HCI, pH 7.8, with 0.1 mM PLP. An aliquot of 100 μL reaction mixture was removed and the 2-butanone product was detected using the MBTH derivatization method described in the General Methods. […] Therefore the Erwinia amino alcohol O-phosphate lyase is an aminobutanol phosphate phospho-lyase in addition to an aminopropanol phosphate phospho-lyase.
The activity of the Erwinia amino alcohol O-phosphate lyase towards various stereoisomers of aminopropanol O-phosphate and aminobutanol O-phosphate was studied under the same conditions as described above. […] Both propanone and butanone products were derivatized by MBTH, and detected by HPLC as described in General Methods.

[2] = system: Klebsiella pneumoniae glycerol dehydratase; experiment: glycerol dehydratase butanediol dehydratase activity; format: biochemical; details: crude cell free extract of KLP23/pSYCO12, 80 mM HEPES pH 8.2, 37° C., 12 μM coenzyme B12, 10 mM substrate
Source text: Glycerol dehydratase (E.C. 4.2.1.30) and diol dehydratase (E.C. 4.2.1.28), while structurally related, are often distinguished in the art based on various differences that include substrate specificity. […] The recombinant E. coli strain KLP23/pSYCO1 2, comprising Klebsiella pneumoniae genes encoding the multiple subunits of glycerol dehydratase (alpha: SEQ ID NO:145 (coding region) and 146 (protein); beta: SEQ ID NO: 147 (coding region) and 148 (protein); and gamma: SEQ ID NO: 149 (coding region) and 150 (protein)) and Klebsiella pneumoniae genes encoding the multiple subunits of glycerol dehydratase reactivase (large subunit, SEQ ID NO: 151 (coding region) and 152 (protein); and small subunit, SEQ ID NO: 153 (coding region) and 154 (protein)), is described in Emptage et al. U.S. Pat. No. 6,514,733 and in WO 2003089621, which are herein incorporated by reference. A crude, cell free extract of KLP23/pSYCO12 was prepared by methods known to one skilled in the art. […] The formation of 2-butanone was monitored by HPLC (Shodex SH-1011 column and SH-G guard column with refractive index detection; 0.01 M H2SO4 as the mobile phase at a flow rate of 0.5 mL/min and a column temperature of 50° C.; 2-butanone retention time=40.2 min). The rate of 2-butanone formation by the glycerol dehydratase preparation was determined to be 0.4 nmol/min/mg of crude protein.

[3] = system: Erwinia amino alcohol O-phosphate lyase; experiment: aminopropanol O-phosphate lyase assay (colorimetric, MBTH); format: biochemical, Erwinia carotovora subsp. atroseptica; details: induced cell free extract 100 μg/mL, 10 mM substrate, 37° C.
Description: The PBAD.KA-AT plasmid was transformed into the E. coli TOP10 strain. A 50 mL culture of TOP10/pBAD.KA-AT strain was grown to mid log phase (OD600=0.6) in LB, 100 μg/mL ampicillin media at 37° C. with shaking at 250 rpm. The culture was induced by addition of L-arabinose to a final concentration of 0.1% (w/v), and it was further incubated at 37° C. for 5 h before harvesting by centrifugation. The cell pellet was resuspended in ice cold 50 mM Tris-HCl, pH 8.0, and disrupted by sonication on ice with a Fischer Sonic Model 300 Dismembrator (Fischer, Pittsburgh, Pa.) at 50% power, repeating four cycles of 30 seconds sonication with 60 seconds rest in-between each cycle. Each sonicated sample was centrifuged (15,000×g, 4 min, 4° C.). Clarified cell free extracts were analyzed for protein expression level and amino alcohol O-phosphate lyase activity.
The aminopropanol O-phosphate lyase assay was performed as described by Jones et al. (1973, Biochem. J. 134:167-182) and G. Gori et al. (1995, Chromatographia 40:336) The formation of propionaldehyde from aminopropanol O-phosphate was assayed calorimetrically with MBTH, which allows the detection of aldehyde formation. The reaction was performed as follows. In a 1 mL reaction, 100 μg cell free extract of E. coli TOP10/pBAD.KA-AT was added to 10 mM DL-1-amino-2-propanol O-phosphate in 100 mM Tris-HCl, pH 7.8, with 0.1 mM PLP. The reaction was incubated at 37° C. for 10 min and 30 min, with an aliquot of 100 μL reaction mixture removed at each time point and mixed with 100 μL of 6 mg/mL MBTH in 375 mM glycine-HCl, pH 2.7. This mixture was incubated at 100° C. for 3 min, cooled on ice for 15-30 s, and 1 mL of 3.3 mg/mL FeCl3.6H2O (in 10 mM HCl) was added, followed by incubation for 30 min at room temperature. The absorbance of the reaction mixture which contains the aldehyde-MBTH adduct, was measured at 670 nm. In the presence of the aminopropanol phosphate substrate, PLP and cell free extract, formation of aldehyde was detected, as indicated by an Abs670 that was higher than the control background of up to 0.3. In the absence of either the substrate or the cell free extract, no aldehyde formation was detected. In the absence of added PLP, somewhat less amount aldehyde was detected, presumably due to the presence of PLP in the cell free extract.

[4] = system: Vibrio Fluvialis APT (alanine:acetoin aminotransferase); experiment: kinetic resolution of 3-amino-2-butanol isomers with the alanine:acetoin aminotransferase; format: biochemical, Vibrio Fluvialis JS17; details: 10 mM pyruvate, 10 mM 1:1 isomer mixture, 0.28 mg enzyme, pH 9.0, 24 h room temperature
Description: An analytical method for detection of 3-amino-2-butanol was developed based on the o-phthaldialdehyde derivatization method for amino acid determination reported by Roth [Anal. Chem. 43:880 (1971)]. A 200 μL aliquot of 1 mM 3-amino-2-butanol (mixture of isomers) was mixed with 200 μL of a 50 mM solution of borate (pH 9.5), to which was added 10 μL of 5 μL/mL 2-mercaptoethanol in ethanol and 10 μL of 10 mg/mL o-phthaldialdehdye in ethanol. The solution was incubated at room temperature for 10 min, at which time the derivative was extracted into 200 μL hexane. The hexane was separated from the aqueous solution by decanting, and 10 μL were injected onto a Chiracel OD HPLC column (Daicel Chemical Industries; Fort Lee, N.J.). The column was run isocratically with a mobile phase of 90:10 hexane:isopropanol at a rate of 1 mL/min. The derivatized isomers of 3-amino-2-butanol were detected by absorbance at 340 nm with retention times of approximately 15.7 and 16.8 min [(2S,3S) and (2R,3R)], and 18.4 and 21.9 min [(2R,3S) and (2S,3R)]. […] After 24 h at room temperature, an aliquot was removed and analyzed as described above. […] After 3 h, samples were taken from the reaction and analyzed as described above for acetoin and butanediol. […]

[5] = system: B12-independent diol dehydratase from Clostridium glycolicum; details: cited from earlier work

For `C[C@@H](N)COP(=O)(O)O` [(R)-2-amino-1-propanol O-phosphate], the “conversion of substrate to ketone product” value (“conversion of substrate” below) [1] was “converted to propanone”.
In the case of `C[C@H](N)COP(=O)(O)O` [(S)-2-amino-1-propanol O-phosphate], the “conversion of substrate” value [1] is reported as “converted to propanone” and the “product yield / activity compared among substrates” value [1] is reported as “much higher”.
In the case of `C[C@@H](N)[C@@H](C)OP(=O)(O)O` (mixture of isomers) [mixture of (R,R)+(S,S), (R,R)-3-amino-2-butanol O-phosphate], the “conversion of substrate” value [1] is reported as “two peaks representing the derivatized 2-butanone isomers were observed”.
In the case of “(2R,3S)-3-amino-2-butanol O-phosphate and (2S,3R)-3-amino-2-butanol O-phosphate [mixture of (R,S) +(S,R) isomers]”, the “conversion of substrate” value [1] is reported as “two peaks representing the derivatized 2-butanone isomers were observed” and the “product yield / activity compared among substrates” value [1] is reported as “higher product yield”.
For `CC(O)C(C)O` (stereo not drawn) [meso-2,3-butanediol], the “rate of 2-butanone formation” value [2] was 0.4 nmol/min/mg of crude protein.
With `CC(CN)OP(=O)(O)O` (racemic) [Aminopropanol O-phosphate, DL-1-amino-2-propanol O-phosphate] the “OD670, 10 min” value ([3]; PLP (+)) was 1.229, the “OD670, 30 min” value ([3]; PLP (+)) was 2.264 and the “OD670, 10 min” value ([3]; PLP (−)) was 0.855. The “OD670, 30 min” value ([3]; PLP (−)) was 1.454 and the “product yield / activity compared among substrates” value [1] was “highest activity”.
For `C[C@H](O)[C@@H](C)N` [(2S,3R) isomer, (2S,3R)-3-amino-2-butanol], the peak retained [4] was > 90%.
In the case of `CC(O)C(C)O` (stereo not drawn) [2,3-butanediol], the “activity relative to the activity towards ethanediol” value [5] is given as “less than 1%”.
`C[C@H](N)[C@@H](C)O` [(2R,3S) isomer, (2R,3S)-3-amino-2-butanol] gave a peak depleted [4] of 95%.
